Reference: patent US20230112845A1, “COMPOSITIONS OF BERBERINE URSODE[…] METHODS THEREOF FOR TREATING FATTY LIVER DISEASE, DIABETES AND HYPERLIPIDEMIA” (SHENZHEN HIGHTIDE BIOPHARMACEUTICAL LTD., priority 2020, published 2023)

Tested on: subjects with a history of hypercholesterolemia
Assay: Phase 1b randomized placebo-controlled dose-ranging study: serum lipids, lipoproteins, HbA1c, ALT
Assay type: in vivo, human
Design: TG (serum level) / TC (serum level) / Non-HDL-c (serum level) / HDL-c (serum level): unit not given here; LDL-c (serum level): unit: mmol/L
Protocol: A double-blind, randomized, placebo-controlled, dose ranging study was carried out that compared three doses of berberine ursodeoxycholate (BUDCA, a.k.a. HTD1801) to placebo in a cohort of subjects with a history of hypercholesterolemia and serum LDL-c levels above 2.59 mmol/L (>99.9 mg/dL). BUDCA was administered in two divided doses each day for 28 days. The primary endpoints of the study were safety and tolerability of this new compound, as well as its effect in lowering serum lipid and lipoprotein concentrations.
Adult subjects were recruited and enrolled into this double-blind, randomized placebo-controlled dose ranging study at one of three research units in Australia between April and December of 2018. The key entry criteria were hypercholesterolemia, with serum LDL-c >2.59 mmol/L (>99.9 mg/dL) and overweight or obesity (BMI between 25 and 40 kg/m^2). […] Subjects were asked to discontinue the use of lipid-lowering medications at least 28 days prior to their first dose of BUDCA and for the duration of the study.
Subjects underwent an initial assessment and were then randomized to receive ascending doses of BUDCA in three sequential dosing groups: Group I received 500 mg/day of BUDCA or matching placebo in a ratio of 3:1. Group II received 1,000 mg/day of BUDCA or placebo, 3:1 and Group III received 2,000 mg/day BUDCA or placebo, 3:1. Study medication or placebo was given in two equal doses daily for 28 days. The investigational product BUDCA was administered in the form of film-coated tablets, each tablet containing 250 mg of BUDCA. The placebo was identical in appearance to the active agent. Subjects were instructed to take their tablets after breakfast and after dinner respectively with a glass of water.
The groups were enrolled sequentially, but follow-up overlapped (the next cohort could begin during the follow-up period of the prior cohort) (FIG. 1). The decision to move to the next dose level was based upon tolerability and safety findings, as assessed by a Safety Monitoring Committee. Individual subjects were admitted overnight for their first and last doses and so as to draw blood samples for pharmacokinetic studies; in between, they were seen every few days. Subjects were asked to arrive in a fasting state (typically overnight). After having vital signs measured and baseline laboratory tests taken, the subject was given a morning meal and then observed while taking their first dose of BUDCA with a glass of water. They stayed overnight to allow sampling for PK studies which were drawn at the following time points −18 hours, −12, −6, 0 time (pre-dose), +0.25 (post-dose), +0.5, +1, +2, +3, +4, +8, +12, +24 hours. Blood samples for PK studies were collected in dipotassium ethylene diamine tetra-acetic acid (K2EDTA) as the anticoagulant and the assays were done on plasma.
Blood samples for serum biochemistry (including lipid levels) and blood counts were drawn with subjects in a fasting state, at baseline and every 14 days through the study. Samples were shipped in a refrigerated state to laboratory where testing was done using routine clinical methodology, as follows: HbA1c was measured by ion-exchange HPLC (Bio-Rad D-100). For samples received by the laboratory prior to Sep. 2, 2018, the following analytes were measured on the Roche Diagnostics Modular P100 platform (ALT by photometric assay, TC by Trinder peroxidase assay, LDL-c by photometric assay, HDL-c by homogenous enzymatic colorimetric assay and TG by photometric assay). For samples received by the laboratory after Sep. 2, 2018, the following analytes were measured on the Beckman Coulter AU 5800 platform (ALT by photometric assay, TC by cholesterol-oxidase/peroxidase assay, LDL-c by homogenous enzymatic colorimetric assay, HDL-c by immune inhibition and cholesterol oxidase assay and TG by an enzymatic method using opiase/GK/GPO-PAP-4 amino phenazone). […]

[1] = highest dose (2,000 mg per day), day 28

COc1ccc2cc3[n+](cc2c1OC)CCc1cc2c(cc1-3)OCO2.C[C@H](CCC(=O)[O-])[C@H]1CC[C@H]2[C@@H]3[C@@H](O)C[C@@H]4C[C@H](O)CC[C@]4(C)[C@H]3CC[C@]12C [BUDCA, berberine ursodeoxycholate]
HDL-c (serum level) (500 mg/day, Day 14, baseline 1.25, P vs. placebo n.s.): 1.22
TG (serum level) (500 mg/day, Day 14, baseline 2.11, P vs. placebo n.s.): 1.89
LDL-c (serum level) (500 mg/day, Day 14, baseline 4.01, P vs. placebo n.s.): 3.87
Non-HDL-c (serum level) (500 mg/day, Day 14, baseline 4.85, P vs. placebo n.s.): 4.75
TC (serum level) (500 mg/day, Day 14, baseline 6.13, P vs. placebo n.s.): 5.96
HDL-c (serum level) (500 mg/day, Day 28, baseline 1.25, P vs. placebo n.s.): 1.17
TG (serum level) (500 mg/day, Day 28, baseline 2.11, P vs. placebo n.s.): 2.27
LDL-c (serum level) (500 mg/day, Day 28, baseline 4.01, P vs. placebo n.s.): 3.72
Non-HDL-c (serum level) (500 mg/day, Day 28, baseline 4.85, P vs. placebo 0.03): 4.71
TC (serum level) (500 mg/day, Day 28, baseline 6.13, P vs. placebo n.s.): 5.88
HDL-c (serum level) (1,000 mg/day, Day 14, baseline 1.32, P vs. placebo n.s.): 1.29
TG (serum level) (1,000 mg/day, Day 14, baseline 1.76, P vs. placebo n.s.): 1.73
LDL-c (serum level) (1,000 mg/day, Day 14, baseline 3.68, P vs. placebo n.s.): 3.42
Non-HDL-c (serum level) (1,000 mg/day, Day 14, baseline 4.48, P vs. placebo n.s.): 4.23
TC (serum level) (1,000 mg/day, Day 14, baseline 5.81, P vs. placebo n.s.): 5.51
HDL-c (serum level) (1,000 mg/day, Day 28, baseline 1.32, P vs. placebo n.s.): 1.23
TG (serum level) (1,000 mg/day, Day 28, baseline 1.76, P vs. placebo 0.028): 1.86
LDL-c (serum level) (1,000 mg/day, Day 28, baseline 3.68, P vs. placebo n.s.): 3.51
Non-HDL-c (serum level) (1,000 mg/day, Day 28, baseline 4.48, P vs. placebo 0.025): 4.31
TC (serum level) (1,000 mg/day, Day 28, baseline 5.81, P vs. placebo n.s.): 5.54
HDL-c (serum level) (2,000 mg/day, Day 14, baseline 1.24, P vs. placebo n.s.): 1.33
TG (serum level) (2,000 mg/day, Day 14, baseline 1.60, P vs. placebo n.s.): 1.42
LDL-c (serum level) (2,000 mg/day, Day 14, baseline 3.85, P vs. placebo 0.0093): 3.40
Non-HDL-c (serum level) (2,000 mg/day, Day 14, baseline 4.62, P vs. placebo 0.0018): 4.04
TC (serum level) (2,000 mg/day, Day 14, baseline 5.91, P vs. placebo 0.01): 5.37
HDL-c (serum level) (2,000 mg/day, Day 28, baseline 1.24, P vs. placebo n.s.): 1.29
TG (serum level) (2,000 mg/day, Day 28, baseline 1.60, P vs. placebo 0.0018): 1.54
LDL-c (serum level) (2,000 mg/day, Day 28, baseline 3.85, P vs. placebo 0.091): 3.44
Non-HDL-c (serum level) (2,000 mg/day, Day 28, baseline 4.62, P vs. placebo 0.0002): 4.14
TC (serum level) (2,000 mg/day, Day 28, baseline 5.91, P vs. placebo 0.003): 5.42
ALT level during therapy (500-2,000 mg/day, 28 days): did not change significantly
HbA1C level during therapy (500-2,000 mg/day, 28 days): did not change significantly
serum lipid levels among subjects receiving active therapy (500-2,000 mg/day, maximum reductions relative to placebo after 14 days): decreased in a dose-dependent fashion
change in HDL-c concentration [1]: no significant changes
change in TG concentration [1]: no significant changes
reduction in the serum concentration of TC (highest dose (2,000 mg per day), day 28, P=0.0004): 8.2%
reduction in the serum concentration of LDL-c (highest dose (2,000 mg per day), day 28, P=0.0006): 10.4%
